Results from patent US9107891B2, “Method for alleviating fear memory” (NIPPON SUISAN KAISHA, LTD., priority 2011, dated 2015).

Tests used:
fear memory in mice = assay: Fear conditioning test (freezing time); type: in vivo; settings: administered 30 minutes before fear conditioning, 5% krill oil diet 6 weeks
Description: The present inventors evaluated the actions of food ingredients on fear memory by the “fear conditioning experiment” (J Neurosci 27 158-166, 2007) which is extensively used as an evaluation system for fear memory in mice.
A cubic experimental box made of acrylic resin having a bottom of 20 cm×20 cm and a height of 33 cm, with a conductive metallic grid being laid across the bottom, was used as a new environment for conditioning; each mouse was put into the experimental box and conditioned by applying electric shocks (0.8 mA, 2 s) from the bottom grid. Feeling an intense pain from each electric shock, a mouse memorizes that when placed in the new environment, it will suffer pain from electric shocks. The mice were then returned to the breeding cage where they had been kept before the conditioning.
On the next day (the second day of the behavioral experiment), each mouse was put again into the experimental box where it was given electric shocks on the previous day; even in the absence of applied electric shocks, it would be scared to cringe, a characteristic freezing behavior from fear. The degree of fear memory was assessed by the degree of the freezing behavior, namely, the freezing time during a 3-minute exposure to the experimental box. […]

[1] = test system: pyramidal cells in the basolateral nucleus of amygdala; assay: Patch-clamp in brain slices: depolarization-induced suppression of excitation (DSE); type: cell-based; set-up: unit of the concentration uncertain; settings: both groups of mice
Description: Patch-clamp recordings from pyramidal cells in the amygdala were taken in accordance with the methods described in Non-Patent Documents 21 and 22. […] The access resistance was frequently checked during recording and any cells that experienced substantial changes (±20%) in its value during recording were excluded from analysis.
Whole-cell patch recordings were taken from pyramidal cells in the basolateral nucleus of amygdala. A bipolar glass electrode filled with an artificial cerebrospinal fluid was placed in the vicinity of the cell to be recorded and an electric stimulus was applied to the slice. First, the evoked excitatory postsynaptic current (eEPSC) was recorded from neurons in the amygdala. Subsequently, the cell being recorded was depolarized for 10 seconds and, immediately thereafter, eEPSC was recorded again. The ratio of the amplitude of eEPSC after depolarization (Ipost) to that of EPSC before depolarization (Ipre) (Ipost/Ipre) was calculated, and was used to assess the degree of DSE. In addition, to confirm the cannabinoid receptor dependency of DSE, recording was conducted with a brain slice immersed in an artificial cerebrospinal fluid containing rimonabant (5 mM). […] Thus, DSE was recorded in a brain slice immersed in an artificial cerebrospinal fluid containing capsaicin (10 mM) and the resulting changes were also studied.

C=CCN1CC[C@]23c4c5ccc(O)c4O[C@H]2C(=O)CC[C@@]3(O)[C@H]1C5 [naloxone]
freezing time, naloxone-administered krill oil group vs solvent-administered krill group (fear memory in mice; Test Example 12, FIG. 13): no difference in freezing time

COc1cc(CNC(=O)CCCC/C=C/C(C)C)ccc1O [capsaicin]
effect on DSE ([1]; brain slice in artificial cerebrospinal fluid containing capsaicin (10 (unit uncertain))): suppress DSE

Cc1c(C(=O)NN2CCCCC2)nn(-c2ccc(Cl)cc2Cl)c1-c1ccc(Cl)cc1 [rimonabant]
effect on DSE ([1]; brain slice in artificial cerebrospinal fluid containing rimonabant (5 (unit uncertain))): suppressed DSE almost completely
freezing time, rimonabant-administered krill oil group vs solvent-administered control group (fear memory in mice; Test Example 11, FIG. 12): No significant difference
